Measurements from patent US20090215732A1, “COMBINATION OF COMPOUNDS, WHICH CAN BE USED IN THE TREATMENT OF RESPIRATORY DISEASES, ESPECIALLY CHRONIC OBSTRUCTIVE PULMONARY DISEASE (COPD) AND ASTHMA” (priority 2005, published 2009).

Assay: Estimated solubility of the salt in organic solvents
Format: physicochemical
Procedure: (b) The Form B salt described in (a) above was also prepared by dissolving, in a vial, 20% w of a sample of the benzoate salt prepared by the method of Example 1(b) (Form A) in a solvent such as methanol (>20 mg/ml), ethanol (>20 mg/ml), n-propanol (>20 mg/ml), isopropanol (8.5 mg/ml) or acetone (9.6 mg/ml). The figures in brackets indicate the estimated solubility of the salt in these solvents. The vial was then sealed and the suspension was homogenised at ambient temperature (20° C.) using a magnet. Stirring and temperature were maintained for a period of at least 7 days after which time a sample of the material obtained was dried and tested by XRPD. XRPD confirmed that there had been complete transformation of Form A to Form B.
(a) Form B was prepared by dissolving, in a vial, 20% w of a sample of the furoate salt prepared by the method of Example 1(b) (Form A) in a solvent such as ethanol (16 mg/ml) or 2-butanol (8 mg/ml). The figures in brackets indicate the estimated solubility of the salt in these solvents. The vial was then sealed and the suspension was homogenised at ambient temperature (20° C.) using a magnet. Stirring and temperature were maintained for a period of at least 7 days after which time a sample of the material obtained was dried and tested by XRPD. XRPD confirmed that there had been complete transformation of Form A to Form B.

estimated solubility of the salt (solvent acetone) [mg/mL]	estimated solubility of the salt (solvent ethanol) [mg/mL]	estimated solubility of the salt (solvent isopropanol) [mg/mL]	estimated solubility of the salt (solvent methanol) [mg/mL]	estimated solubility of the salt (solvent n-propanol) [mg/mL]	estimated solubility of the salt (solvent 2-butanol) [mg/mL]	Compound
9.6	> 20	8.5	> 20	> 20	–	CC(=O)Nc1ccc(O)cc1OC[C@@](C)(O)CNC1CCN(Cc2ccc(Cl)cc2)CC1.O=C(O)c1ccccc1 [Example 1(b), N-{2-[((2S)-3-{[1-(4-chlorobenzyl)piperidin-4-yl]amino}-2-hydroxy-2-methylpropyl)oxy]-4-hydroxyphenyl}acetamide benzoate (1:1 salt), Form A]
–	16	–	–	–	8	CC(=O)Nc1ccc(O)cc1OC[C@@](C)(O)CNC1CCN(Cc2ccc(Cl)cc2)CC1.O=C(O)c1ccco1 [Example 1(c), N-{2-[((2S)-3-{[1-(4-chlorobenzyl)piperidin-4-yl]amino}-2-hydroxy-2-methylpropyl)oxy]-4-hydroxyphenyl}acetamide furoate (1:1 salt), Form A]
